Test results taken from patent US20240360107A1, “AN EIF4A INHIBITOR WITH A NOVEL MECHANISM OF ACTION” (ARIZONA BOARD OF REGENTS ON BEHALF OF THE UNIVERSITY OF …, priority 2021, published 2024).
“Also recorded” adds a separate entry of the source.

Assays:
[1] = system: HCV IRES-dependent translation of Renilla luciferase; test: in vitro translation of bicistronic luciferase reporter in rabbit reticulocyte lysate, Renilla luciferase; assay type: biochemical; conditions: Cycloheximide 600 μM, Silvestrol 100 nM
Description: A bicistronic luciferase reporter ([…]) (FIG. 7B, top) was programmed into rabbit reticulocyte lysates, cellular extracts capable of performing both cap-dependent and Hepatitis C virus (HCV) internal ribosomal entry site (IRES)-mediated translation. eIF4A is the enzymatic driver of cap-dependent translation and is not involved in translation through HCV IRES. Compounds that inhibit eIF4A should inhibit cap-dependent translation of firefly (FF) luciferase while leaving IRES-mediated translation of Renilla (Ren) luciferase relatively unaffected. The inhibitory activities of cycloheximide, silvestrol, and 28 were assessed in this in vitro translation assay (FIG. 7B, bottom). […] The ability of compound 28 to preferentially target cap-dependent translation in a similar manner as silvestrol provides promising evidence that 28 inhibits eIF4A and not other proteins in the general translational machinery.
The dual-luciferase reporter plasmid pSP/(CAG)33/FF/HCV/Ren-pA51 was linearized with BamHI and subsequently in vitro transcribed using the Promega mMessage mMachine SP6 transcription kit, according to manufacturer's specifications. RNA was precipitated with LiCI and resuspended in H2O for use in in vitro translation experiments. Rabbit reticulocyte lysate (RRL) (nuclease-treated, Promega) was used to assess inhibitory effects of 28 on translation of the dual-reporter. Briefly, a reaction consisting of 50% RRL, 30 ng/μL reporter RNA, 10 μM Amino Acid Mixture Minus Methionine, 10 μM Amino Acid Mixture Minus Leucine, […], 1 U/μL RNAseOut (Thermo), and drug (final DMSO concentration 1%) were incubated at 30° C. for 90 minutes. The reaction was quenched with 50 μL 1× Passive Lysis Buffer (Promega), 10 μL of the mix was transferred to a 96-well white plate (Cellstar), and the Dual-Reporter Luciferase Assay System (Promega) was used to generate luminescence according to the manufacturer's instructions. Luminescence was detected using a plate reader (BioTek HT Synergy).

eIF4A = eIF4A (Homo sapiens, UniProt P60842); test: Cellular Thermal Shift Assay (CETSA) in A549 cells; assay type: cell-based; parameters: endogenous in cells; host or cells: A549 cells; conditions: 90 min, 55° C., silvestrol 100 nM
eIF4A, sequence (P60842 2-406): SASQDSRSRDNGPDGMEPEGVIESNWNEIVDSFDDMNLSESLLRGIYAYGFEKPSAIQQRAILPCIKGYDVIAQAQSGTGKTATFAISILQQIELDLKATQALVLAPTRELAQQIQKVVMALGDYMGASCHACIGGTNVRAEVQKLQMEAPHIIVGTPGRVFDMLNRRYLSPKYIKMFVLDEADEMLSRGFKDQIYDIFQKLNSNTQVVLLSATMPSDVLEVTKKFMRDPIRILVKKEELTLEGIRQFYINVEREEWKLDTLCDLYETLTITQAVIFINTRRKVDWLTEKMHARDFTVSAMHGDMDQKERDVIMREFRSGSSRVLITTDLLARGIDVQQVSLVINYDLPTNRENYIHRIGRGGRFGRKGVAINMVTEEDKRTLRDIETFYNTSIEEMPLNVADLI
Description: In CETSA, thermal stability of a protein is assessed by heating cells and then separating insoluble, aggregated, or denatured proteins from soluble proteins through supernatant/pellet fractionation. Levels of the protein of interest (eIF4A) remaining in the soluble fraction are then measured by western blot. The principle of CETSA is similar to differential scanning fluorimetry (DSF), in that thermal stability and solubility of a protein increases upon binding a ligand.
Cellular Thermal Shift Assay (CETSA). A549 cells were seeded into wells in 6-well plates and on the following day were exposed to 28 or silvestrol (100 nM) for 90 min. Cells were harvested, resuspended in 50 μL DMEM, and dispensed into thin-walled PCR tubes. Cells were subjected to 3 min of heat at 55° C. in a thermocycler (miniPCR). After heating, cells were left to cool for 3 min and then snap-frozen on dry ice. Cells were subjected to 3 rapid freeze thaws with 15 seconds of vortexing after each thaw. After the first thaw, 1 μL of a dissolved Pierce protease inhibitor tablet (ThermoFisher—A32963) was added to the cell lysate. Cell lysates were centrifuged at 20,000×g for 20 min. […] All immunoblot images were taken using the Azure 600 imaging system (Azure Biosystems) and analyzed using ImageJ 1.51s (NIH). […]

CCCCc1ccc(-c2ccc(-c3cc(C(=O)O)c4cc([N+](=O)[O-])ccc4n3)o2)cc1 [Compound 28, 2-(5-(4-butylphenyl)furan-2-yl)-6-nitroquinoline-4-carboxylic acid]
effect on HCV IRES-mediated translation (Renilla luciferase) [1]: only show a modest effect on HCV IRES-dependent translation of Renilla luciferase | thermal stability of eIF4A in cells (CETSA) (eIF4A): dose-dependent increase in thermal stability of eIF4A; also recorded: engages eIF4A in cells
